In ChEMBL document CHEMBL5214915 (Eur J Med Chem, 2021):
In brackets after ≈: the same amount, converted by molar mass.

How the values were obtained:
Format in all cases: functional
[1] = system: Mycobacterium tuberculosis variant bovis; test: Antibacterial activity against Mycobacterium bovis BCG incubated for 1 week in 7H9/ADC/Tw medium in presence of 0.1 mM indole
[2] = system: Mycobacterium tuberculosis variant bovis; test: Antibacterial activity against Mycobacterium bovis BCG incubated for 1 week in 7H9/ADC/Tw medium in presence of 0.5 mM chorismate
[3] = system: Mycobacterium tuberculosis variant bovis; test: Antibacterial activity against Mycobacterium bovis BCG incubated for 1 week in 7H9/ADC/Tw medium
[4] = system: Mycobacterium tuberculosis variant bovis; test: Antibacterial activity against Mycobacterium bovis BCG incubated for 1 week in 7H9/ADC/Tw medium in presence of 0.1 mM chorismate
[5] = system: Mycobacterium tuberculosis variant bovis; test: Antibacterial activity against Mycobacterium bovis BCG incubated for 1 week in 7H9/ADC/Tw medium in presence of 0.1 mM anthranilate
[6] = system: Mycobacterium tuberculosis variant bovis; test: Antibacterial activity against Mycobacterium bovis BCG incubated for 1 week in 7H9/ADC/Tw medium in presence of 0.1 mM Trp
[7] = Mycobacterium tuberculosis variant bovis, BCG, 168 h, read-out: MIC

Structure (SMILES)	MIC [1] [µM]	MIC [2] [µM]	MIC [3] [µM]	MIC [4] [µM]	MIC [5] [µM]	MIC [6] [µM]	MIC [1, 7] [µM]	MIC [2, 7] [µM]	MIC [3, 7] [µM]	MIC [4, 7] [µM]	MIC [5, 7] [µM]	MIC [6, 7] [µM]
Cl.Nc1cccc(F)c1C(=O)NNc1ccccc1	>50	14.2	3.5	7.1	>50	>50	–	–	–	–	–	–
Nc1cccc(F)c1C(=O)O	–	–	–	–	–	–	> 50	6.4	6.4 (≈ 0.993 µg/mL)	6.4	> 50	> 50
Nc1cccc(F)c1C(=O)NNc1ccccc1	–	–	–	–	–	–	> 50	8.15	2 (≈ 0.491 µg/mL)	8.15	> 50	> 50
Nc1cccc(F)c1C(=O)NNc1c(Cl)cc(Cl)cc1Cl	–	–	–	–	–	–	> 50	45.9	22.9 (≈ 7.98 µg/mL)	45.9	> 50	> 50
